Reference: patent US11123335B2, “Method for preventing lung diseases in smokers and non-smokers using antihypertensive drug” (SEOUL NATIONAL UNIVERSITY R & DB FOUNDATION, priority 2015, dated 2021)

Assays:
[1] = test system: mice; test: NE (stress hormone) lung carcinogenesis model with urethane; assay type: in vivo, mouse; conditions: continuous NE exposure by micro-osmotic pump, 12 weeks, urethane 1 g/kg
Description: To identify the carcinogenesis promotion by a stress hormone NE, NE (50.1 mM) or vehicle PBS was injected into micro-osmotic pumps (Alzet), and then the pumps were implanted into the backs of mice. Six weeks later, the existing pumps were removed, NE or PBS-injected new pumps were implanted into the mice, and then the mice were continuously exposed (daily exposure at a dose of 1 μmol per 100 g mouse) to NE for a total of 12 weeks. To stimulate tumorigenesis, three days after the pump implantation, urethane was administered at a dose of 1 g/kg.
For non-invasive observation of tumors before autopsy, MMPSense 680 probes were injected, and images were obtained using IVIS Spectrum microCT (PerkinElmer). After autopsy of the mice, lungs were extracted, and produced tumors were counted and embedded in paraffin to form paraffin blocks. Four or more tissue sections were prepared at regular intervals and stained by H&E staining, and then numbers and sizes of the tumors were measured to calculate volumes of the tumors. The tumor volume was calculated according to (minor axis)^2×major axis×0.5.

[2] = test system: IGF2; test: NE-mediated IGF2 secretion in lung epithelial cells; assay type: cell-based, human
Description: ELISA for IGF1, IGF2 and NE were performed using commercially available ELISA kits (R&D Systems, DSL or Abnova) according to the manufacturer's instruction.

[3] = test system: IGF-1R; test: NE-mediated IGF-1R activation in lung epithelial cells; assay type: cell-based, human
Description: (§1) Cells were washed twice with ice-cold PBS, and then lysed with a modified RIPA buffer [50 mM Tris-HCl (pH 7.4), 150 mM NaCl, 1 mM EDTA, 0.25% sodium deoxycholate, 1% Triton X-100, a protease inhibitor cocktail, 100 mM NaF, 1 mM Na3VO4]. Lysates were centrifuged at 13,000 rpm for 15 to 20 minutes to harvest supernatants, and then the collected proteins were quantified using the BCA method. Equivalent amounts of the proteins were subjected to electrophoresis using 8-15% SDS-PAGE, and then transferred to a PVDF membrane. The membrane was washed with TBST (0.01% Tween-20-containing Tris-buffered saline), and blocked in a blocking buffer (diluted in TBST to contain 5% skim milk) at room temperature for 1 hour. The membrane was incubated with primary antibodies diluted in 3% BSA-containing TBST at 4° C. for 12 hours, and washed with TBST for over 1 hour. The membrane was incubated with secondary antibodies diluted in TBST containing 3% skim milk at room temperature for 1 to 2 hours, and washed with TBST for over 1 hour. The membrane was reacted in an ECL solution, and band visualization was carried out by exposure to an X-ray film.

[4] = test system: lung epithelial cells; test: Transformation of lung epithelial cells by stress hormones; assay type: cell-based, human; conditions: treatment with the stress hormone alone
Description: Cells (2-3×10^3 cells) were seeded into 96-well plates, treated with a test drug diluted with a medium, and then incubated for 3 days. After incubation, the cells were treated with an MTT solution to have a final concentration of 200-500 μg/ml and incubated for 2 to 4 hours. After discarding the medium, produced formazan was dissolved in DMSO, and then the absorbance at 570 nm was measured. Alternatively, cells were seeded into 12- or 24-well plates, collected after a predetermined time after treatment with a test drug, and then counted using a hemocytometer. 100 to 300 cells were seeded into 6- or 12-well plates and then treated with NNK or NNK and a test drug for 2 to 3 weeks. After 2 to 3 weeks, Colony formation was observed and the colonies were counted after stained staining with crystal violet. Before the experiment, low-melting agar (final concentration of agar: 1%) was diluted with a medium, and then 1 ml of the resulting solution was added and solidified in each 24-well plate, resulting in bottom agar. 2,000 to 5,000 cells were mixed with the low melting agar (final concentration of agar: 0.35-0.4%), 500 μl of the resulting mixture was added onto each bottom agar. After solidification of the agar, the cells were treated with NNK or a test drug, which was diluted with a medium. After 2 to 4 weeks after treatment, colonies were stained with an MTT solution, observed, and then counted. Lung epithelial cells at 90 to 95% confluency were treated with a carcinogen diluted with a growth factor-free medium, or a carcinogen and a test drug. After 2 to 3 weeks, foci formation was observed.

[5] = test system: FVB mouse; test: Emphysema-induced mouse model (NNK/B[a]P); assay type: in vivo; conditions: FVB mice, amlodipine 0.8 mg/kg oral 6 times a week, 5 months
Description: Cells were plated onto coverslips, pretreated with a drug and then treated with NNK or NE. OCT blocks were sliced to have a thickness of 4 μm and then placed onto silane-coated slides. Cells or tissue was washed with PBS, and fixed with 4% paraformaldehyde at room temperature for 30 minutes. Afterward, the cells were permeabilized with 0.1% Triton X-100, and blocked in a blocking solution. After treatment with primary antibodies at 4° C. for over 12 hours, the cells were washed with PBS several times, and then treated with fluorescence-binding secondary antibodies. Subsequently, after washing with PBS several times, the slides were mounted with a DAPI-containing mounting solution, and images were captured using a confocal microscope.
Paraffin blocks were sliced to have a thickness of 4 μm, placed onto silane-coated slides, and then dried. […]
As a method for detecting the activation degree of a protease, a matrix metalloproteinase (MMP), known as the main factor causing COPD in lung tissue, a proper amount of a reaction buffer containing fluorescein isothiocyanate (FITC)-coupled DQ gelatin was added to a slide, and reacted at 37° C. in a dark room for 12 hours. The activated MMP decomposed the DQ gelatin, resulting in fluorescence from FITC which had been inhibited, and thus the fluorescence intensity of FITC was directly proportional to MMP activity. […]

[6] = test system: IGF-1R; test: Angiotensin-induced activation of IGF-1R signaling in BEAS-2B; assay type: cell-based, human; conditions: angiotensin stimulation
Description: as §1

[7] = NE-treated lung epithelial cells

Molecule: NC[C@H](O)c1ccc(O)c(O)c1 [NE, norepinephrine]
- urethane-initiated lung carcinogenesis [1]: significantly increased
- IGF2 secretion ([2]; lung epithelial cells treated with NE): increased
- IGF-1R phosphorylation ([3]; BEAS-2B, HBE/p53i, NHBE, HB56B, NE time- or concentration-dependent): increased
- transformation of lung epithelial cells (viability, colony formation, foci formation) [4]: significantly enhanced

Molecule: amlodipine
- NE-mediated IGF2 secretion [2, 7]: inhibited
- NE-mediated IGF-1R activation [3, 7]: inhibited
- lung tissue collapse (morphology, H&E) [5]: inhibited

Molecule: angiotensin (DRVYIHPF; Angiotensin-2; UniProt P01019 25-32, looked up) [angiotensin used to stimulate BEAS-2B lung epithelial cells]
- activation of IGF-1R and downstream signaling mediators Akt and ERK [6]: concentration- and time-dependently activated
